In the NIST ThermoML archive (doi:10.1021/je200730m):

Details: Liquid, Closed cell (Static) method

CCCCCCCCCC(=O)OCC [ethyl decanoate]
Details	vapor or sublimation pressure [kPa]
303.1 K	0.00446
313.16 K	0.0105
333.23 K	0.0478
343.2 K	0.0952
353.16 K	0.181
363.12 K	0.328
412.15 K	3.65
422.13 K	5.472
432.24 K	8.07
442.23 K	11.55
452.28 K	16.28
462.37 K	22.35

CCCCCCCCCCCC(=O)OCC [ethyl dodecanoate]
Details	vapor or sublimation pressure [kPa]
313.1 K	0.00183
351.88 K	0.0346
362.1 K	0.0674
372.12 K	0.124
382.17 K	0.229
392.24 K	0.399
402.2 K	0.669
422.15 K	1.695
432.26 K	2.647
442.27 K	3.986
452.31 K	5.804
462.43 K	8.49

CCCCCC(=O)OCC [ethyl hexanoate]
Details	vapor or sublimation pressure [kPa]
253.41 K	0.00344
263.26 K	0.0106
283.06 K	0.0663
293.05 K	0.144
303.03 K	0.291
313.15 K	0.562
323.18 K	1.018
333.11 K	1.781
343.09 K	2.978
351.97 K	4.553
362.1 K	7.184
372.13 K	10.93
382.15 K	16.07
392.23 K	23.19
402.19 K	32.56
412.21 K	44.9
422.19 K	60.62
432.28 K	80.76
442.29 K	105.57
452.34 K	136.73
462.43 K	174.6

CCCCCCCC(=O)OCC [ethyl octanoate]
Details	vapor or sublimation pressure [kPa]
273.26 K	0.00219
283.08 K	0.00627
293.05 K	0.0156
303.09 K	0.035
313.2 K	0.0757
323.31 K	0.152
351.9 K	0.869
362.1 K	1.487
372.06 K	2.432
382.13 K	3.872
392.19 K	5.904
402.13 K	8.723
412.13 K	12.67
422.12 K	18.04
432.22 K	25.22
442.26 K	34.49
452.3 K	46.42

CCCCCCCCCCCCCC(=O)OCC [ethyl tetradecanoate]
Details	vapor or sublimation pressure [kPa]
333.22 K	0.00147
343.19 K	0.00361
353.15 K	0.00775
363.09 K	0.0163
371.72 K	0.0302
382.03 K	0.0572
391.87 K	0.105
401.89 K	0.187
411.93 K	0.322
421.97 K	0.539
432.22 K	0.887
442.39 K	1.394
452.25 K	2.127
462.3 K	3.2
